This is an account of results in article PMC10810651, “Discovery of novel and potent CDK8 inhibitors for the treatment of acute myeloid leukaemia” (Journal of Enzyme Inhibition and Medicinal Chemistry, 2024).

The target in one series is CDK2 (Homo sapiens, UniProt P24941). Briefly: CDKs selectivity, CDK2. It counts as biochemical. An excerpt:
(§1) CDK7 and CDK9 with the same transcription function and CDK2 and CDK6 were selected to evaluate the selectivity of compound 12.

Another series deals with CDK6 (Homo sapiens, UniProt Q00534). Briefly: CDKs selectivity, CDK6. It counts as biochemical.
Chain of CDK6 (Q00534 whole entry): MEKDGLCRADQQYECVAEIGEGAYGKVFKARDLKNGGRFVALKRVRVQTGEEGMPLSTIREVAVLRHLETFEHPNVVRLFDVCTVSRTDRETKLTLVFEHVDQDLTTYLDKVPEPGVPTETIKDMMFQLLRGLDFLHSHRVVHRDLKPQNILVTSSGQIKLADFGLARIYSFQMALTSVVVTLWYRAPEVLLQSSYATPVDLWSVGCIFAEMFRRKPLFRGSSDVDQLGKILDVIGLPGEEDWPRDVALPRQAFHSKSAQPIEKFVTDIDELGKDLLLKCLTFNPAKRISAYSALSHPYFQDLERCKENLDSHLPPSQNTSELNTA
Excerpt: as §1

The next series concerns MDA-MB-231. Briefly: Antiproliferative CCK-8 assay, MDA-MB-231. The series is classed as cell-based. As to conditions: Homo sapiens; MDA-MB-231, CCK-8 assay, means ± SD; read-out: GC50 (the source's name). An excerpt: (§2) Compounds12, 13 and 30 were selected for further cell activity assessments based on the enzymatic activity assessment results. molm-13 and MV4-11(acute myeloid lineage leukaemia cells), MGC-803 (gastric cancer cell), MDA-MB-231(breast cancer cell), A375 (melanoma cell), A549 (lung cancer cell), HCT-116, SW-480 and HT-29 (colorectal cancer cells) were selected to evaluate antitumor activity in vitro, GES-1 (gastric mucosal epithelial cell) was selected to evaluate toxicity in vitro.
(§3) CO2 atmosphere incubator for 24 h. Then, medium with compound at the concentrations of 100, 20, 4, 0.8, 0.016 μM was added into each well for another 48 h and incubated with CCK-8 (10 μL) for 2 h at 37 °C. The absorbance value at 450 nm was measured by the microplate reader (PerkinElmer Envision). […]
In general terms: Formazan colour is commonly taken as a measure of viable cells.

The next series relates to C57BL/6 mice. Briefly: Acute toxicity study. It counts as in vivo. To be noted: 1000 mg/kg by gastric tube. The procedure: The safety of compound 12 in vivo was evaluated through an acute toxicity study on C57BL/6 mice. The compound 12 was administered by gastric tube at a dose of 1000 mg/kg. The normal group was given the same amount of normal saline. […] Finally, the mice were anaesthetised and sacrificed, and the main organs such as heart, liver, spleen, lung and kidney were detected through pathological section.

A further series concerns MV4-11. Briefly: Antiproliferative CCK-8 assay, MV4-11. The series is classed as cell-based. As to conditions: Homo sapiens; MV4-11, CCK-8 assay, means ± SD; read-out: GC50 (the source's name).
Excerpt: as §2, §3

The test system of the next series is STAT1 S727. The experiment in a line: Phosphorylation of STAT1 S727, western blot. The series is classed as cell-based. As to conditions: HCT-116 cells, 1, 2, 4 μM, 12 h. The procedure:
(§4) It has been reported that CDK8 could specifically target the transactivation domain of STAT1 at Ser727 phosphorylation. HCT-116 cells were treated with compounds 12 with different concentrations of 1 μM, 2 μM, 4 μM separately to verify compound 12 could inhibit the phosphorylation of STAT1 Ser727. […] It’s reported that CDK8 was also involved in S726 phosphorylation of STAT5 in AML cells.
(§5) Figure 6. Compound 12 inhibited phosphorylation of STAT1 S727 and STAT5 S726. (A) Compound 12 suppressed the phosphorylation of STAT1 S727 in a dose-dependent manner. HCT-116 cells were treated with compound for 12 h. (B) Compound 12 suppressed the phosphorylation of STAT5 S726 in a dose dependent manner. HL-60 cells were treated with or without compound for 12 h. The samples were analysed by Western blot.
(§6) 1.7 The effect of compound on phosphorylation of STAT1 S727
(§7) HCT-116 cells were seeded into 60 mm cultural dishes at a density of 1.5×10^6 cells per dishes. […] Levels of total STAT1, phosphorylated STAT1 S727, Y701 and GAPDH were analyzed. […]
(§8) Levels of total STAT5, phosphorylated STAT5 S726 and GAPDH were analyzed.
(§9) The results were expressed as the means ± SEMs (SPSS software), and the differences between groups were evaluated using Turkey’s method (GraphPad Software). […]
(In western blotting, separated proteins are transferred to a membrane and probed.)

Another series has as its target CDK8 (Homo sapiens, UniProt P49336). Briefly: Biotin-pulldown assay. It counts as binding. Also noted: endogenous in cells; host or cells: HCT-116. As to conditions: HCT-116 or CDK8-transfected HEK293T cells; 2 μM biotinylated compound; 1, 2, 4 μM. The procedure: In previous study, a biotinylated compound with favourable CDK8 inhibition activity was designed and synthesized. Here, the pulldown assay was performed to determine compound 12 could bind CDK8. HCT-116 cells or HEK293T cells transfected with CDK8 plasmid labelled were treated with 2 μM biotinylated compound and compounds 12 with different concentrations of 1 μM, 2 μM, 4 μM separately.
CO2 atmosphere incubator for 24 h. Then, medium with compound at the concentrations of 100, 20, 4, 0.8, 0.016 μM was added into each well for another 48 h and incubated with CCK-8 (10 μL) for 2 h at 37 °C. The absorbance value at 450 nm was measured by the microplate reader (PerkinElmer Envision).
The kinase inhibition was detected by ADP-Glo™ Kinase Assay (Promega) using a black 384-well plate. The active CDK8 kinase was diluted in mixture (5 ng enzyme, 0.5 μg substrate, 50 μM DTT, 1 μL reaction buffer and added ddH2O to 3 μL each well) and the final ATP concentrations of was 50 μM. […] The data was collected by the microplate reader. […]
were broken by ultr asonic treatment and centrifuged at 12000 rpm for 20 min. The supernatant was analyzed by western blot. […]
After co-treated with 2 μM biotinylated compound and compound 12 for 12 h, HCT-116 cells were lysed with NP-40 containing PMSF and centrifuged at 14000 r for 30 min at 4 °C. […] The samples were analyzed by western blot.

Another series concerns STAT5 S726. The experiment in a line: Phosphorylation of STAT5 S726, western blot. As to conditions: HL-60 cells, 12 h. The series is classed as cell-based. On the procedure:
as §4, §5, §6, §7, §8, §9

Chain of CDK8 (P49336 whole entry): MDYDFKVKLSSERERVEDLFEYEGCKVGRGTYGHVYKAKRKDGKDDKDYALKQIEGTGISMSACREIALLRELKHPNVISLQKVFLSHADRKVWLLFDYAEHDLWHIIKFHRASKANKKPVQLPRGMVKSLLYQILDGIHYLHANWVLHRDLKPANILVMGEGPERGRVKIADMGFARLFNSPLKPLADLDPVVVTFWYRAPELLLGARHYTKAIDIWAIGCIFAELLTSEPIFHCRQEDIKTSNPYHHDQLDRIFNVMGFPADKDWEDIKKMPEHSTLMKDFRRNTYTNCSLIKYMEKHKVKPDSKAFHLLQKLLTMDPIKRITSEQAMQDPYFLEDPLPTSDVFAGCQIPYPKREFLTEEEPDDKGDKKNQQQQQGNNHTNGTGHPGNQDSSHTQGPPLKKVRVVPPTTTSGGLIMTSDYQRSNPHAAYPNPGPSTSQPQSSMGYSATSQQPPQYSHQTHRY

For the molecule `NC(=O)c1cccc(-c2cnc3[nH]cc(-c4ccoc4)c3c2)c1` [Compound 12, 3-(3-(furan-3-yl)-1H-pyrrolo[2,3-b]pyridin-5-yl)benzamide], the IC50 at CDK2 was over 1 µM; at CDK6, 0.352 ± 0.0365 µM; in the series on MDA-MB-231, over 50 µM; in the series on MV4-11 it was 0.03 ± 0.01 µM. Also, the “Physiological phenomena such as anorexia, drowsiness, seizures and hyperactivity” value in the series with C57BL/6 mice (7 days) is “no obvious change”. Besides, the “Pathological section of heart, liver, spleen, lung and kidney (HE staining)” value in the series with C57BL/6 mice (after 7 days) is “no diseased tissue”. For the same molecule, the “Phosphorylation of STAT1 S727” value in the series with STAT1 S727 is reported as “significantly inhibited in a dose-dependent manner”. Further, the “Competition with biotinylated compound for binding to CDK8” value on CDK8 is recorded as “could inhibit the binding of biotinylated compound to CDK8”. Also, the “Phosphorylation of STAT5 S726” value with STAT5 S726 is “could inhibit phosphorylation of STAT5 S726 in a dose-dependent manner”.
